The values below are quoted from earlier work in patent US9609876B2, “Antimicrobial compositions” (priority 2012, dated 2017).

The conditions of series [1]: in vivo.

Take `CC(=O)CCC(=O)O` [Levulinic acid]: in series [1], the LD50 is 1850 mg/kg.

In the case of `CCCCCCCCCCCC(=O)N[C@@H](CCCNC(=N)N)C(=O)OCC.Cl` [LAE, N^α-lauroyl-L-arginine ethyl ester monohydrochloride], the “pH range in which it is stable and maintains its antimicrobial activity” value is 3-7.

A word on the LD50: it is the dose at which mortality reaches 50%.
